Laboratory results as given in patent US11191804B2, “Cytocidal agent” (FUJITA ACADEMY, priority 2018, dated 2021).
Where no end group is shown, it is not given here. [ ]: non-standard residue; d: D form.

What was measured:
[1] = Body weight of endometriosis model mice after single intraperitoneal administration; format: in vivo, mouse; conditions: for Body Weight, 7th day: 7 days after cell transplantation, before peptide administration (baseline); for Body Weight, 7th day / Body Weight, 8th day: mean ± standard error
Description: Seven days after the A431-CNGB3-myc cells were intraperitoneally transplanted, 0.5 mL of physiological saline solution warmed to 37° C. was intraperitoneally administered to an endometriosis model mouse under isoflurane anesthesia, followed by performing massage. Immediately after the massage, a solution of the K14D-H5D peptide dissolved in physiological saline was intraperitoneally administered. The K14D-H5D peptide was administered at a dose of 0 mg/10 mL/kg (control) (n=7), 5 mg/10 mL/kg (n=8), or 10 mg/10 mL/kg (n=8) per mouse body weight
Each mouse was weighed 7 days after the A431-CNGB3-myc cells were intraperitoneally transplanted, before K14D-H5D peptide administration and before exsanguination.
The mouse group in which the dose of the K14D-H5D peptide per mouse body weight was 0 mg/10 mL/kg was represented as G1 group, the mouse group in which the dose of the K14D-H5D peptide per mouse body weight was 5 mg/10 mL/kg was represented as G2 group, and the mouse group in which the dose of the K14D-H5D peptide per mouse body weight was 10 mg/10 mL/kg was represented as G3 group. […] In the Table, “7th day” in the “Body Weight” column is the body weight 7 days after the intraperitoneal transplantation of the A431-CNGB3-myc cells, which was before the administration of the K14D-H5D peptide, and “8th day” is the body weight 24 hours after the administration of the K14D-H5D peptide.

OVCAR3-Luc cells = test: Cytocidal activity by ATP amount (CellTiter-Glo assay kit); format: cell-based
Description: The tumor tissue to be transplanted to the mouse was prepared by culturing an ovarian cancer cell line (OVCAR3-Luc cells, transferred from another facility) into which the luciferase gene had been introduced, and used. The OVCAR3-Luc cells were cultured in a culture medium containing a RPMI medium 1640 (11875-093: manufactured by Gibco) containing 10% inactivated FBS (manufactured by Corning) at 37° C. and under a 5 vol % carbon dioxide environment. Passaging was carried out every 2-3 days.
(§1) The cytocidal activity of each peptide was evaluated by measuring the ATP amount in the cells treated with each peptide using CellTiter-Glo (registered trademark) assay kit (manufactured by Promega).
(§2) Specifically, first, the A431-CNGB3-myc cells or the OVCAR3-Luc cells after 3 to 4 passages were seeded in a 96-well plate (manufactured by Corning/Costar, Lot No. 00515003) so as to adjust the cell concentration to 1×10^4 cells/well. […] Luminescence (RLU: RELATIVE LIGHT UNITS) of each reaction solution after standing at room temperature was measured using a Synergy H1 hybrid multimode microplate reader (manufactured by BioTek). The luminescence intensity of the reaction solution is an index of the ATP amount. The smaller the luminescence intensity of the reaction solution, the smaller the ATP amount and the stronger the cytocidal activity of the administered peptide. […]

A431-CNGB3-myc cells = test: as above; format: cell-based, human; conditions: peptide 2.34 to 300.0 μM, 24 hours, FIG. 1
Description: A transformed cell (A431-CNGB3-myc cell) obtained by introducing a gene encoding human CNGB3, in which an myc tag was fused in a C-terminal, into an A431 cell (human epithelial-like cell cancer-derived cell strain) and forcibly expressing thereof was prepared as an endometriosis model cell.
as §1
as §2, with “peptide. All trials were measured in triplicate, and the average value thereof was taken as the emission intensity (RLU) of each reaction solution.” for “peptide.”

## CC(C)C[C@@H](NC(=O)[C@@H](Cc1c[nH]cn1)NC(=O)[C@@H](C)NC(=O)[C@@H](CC(C)C)NC(=O)[C@@H](Cc1c[nH]cn1)NC(=O)[C@@H](CCCCN)NC(=O)[C@@H](C)NC(=O)[C@@H](CC(C)C)NC(=O)[C@@H](CCCCN)NC(=O)[C@@H](C)NC(=O)[C@@H](CC(C)C)NC(=O)[C@@H](CCCCN)NC(=O)[C@@H](CCCCN)NC(=O)[C@@H](C)NC(=O)[C@@H](CC(C)C)NC(=O)[C@@H](CCCCN)NC(=O)[C@@H](C)NC(=O)[C@@H](CC(C)C)NC(=O)[C@H](N)CCCCN)C(=O)O [Peptide K14D-H5D, KLAKLAK-KLAKLAK-HLAHL]
[1]; 5 or 10 mg/10 mL/kg single i.p., 24 hours after administration, depending on the dose
  change in body weight: slight decrease
[1]; G2 group, 5 mg/10 mL/kg i.p.
  Body Weight, 7th day: 20.1 ± 0.4 g
[1]; G2 group, 5 mg/10 mL/kg single i.p., 24 hours after administration
  Body Weight, 8th day: 19.2 ± 0.5 g
[1]; G3 group, 10 mg/10 mL/kg i.p.
  Body Weight, 7th day: 20.0 ± 0.4 g
[1]; G3 group, 10 mg/10 mL/kg single i.p., 24 hours after administration
  Body Weight, 8th day: 17.5 ± 0.3 g

## KLAKLAK-KLAKLAK-HLAHL-VRRADNRPG (KLAKLAKKLAKLAKHLAHLVRRADNRPG; not fully specified (some residues); printed as KLAKLAK-KLAKLAK-HLAHL-VRRADNRPG; also: D-amino acids, positions not given here) [Peptide K14D-H5D-Z13]
OVCAR3-Luc cells; OVCAR3-Luc cells having no CNGB3 on the cell surface, FIG. 3
  cytocidal activity compared with the K14D-H5D peptide: the same cytocidal activity

## KLAKLAK-HLAHLAH-HLAHLAH-HLAH ([dK][dL][dA][dK][dL][dA][dK][dH][dL][dA][dH][dL][dA][dH][dH][dL][dA][dH][dL][dA][dH][dH][dL][dA][dH]) [Peptide K7D-H18D, reference compound]
A431-CNGB3-myc cells
  relative ATP amount (%) / cytocidal activity: decreased in a dose-dependent manner
OVCAR3-Luc cells; OVCAR3-Luc cells, peptide 2.34 to 300.0 μM, 24 hours, FIG. 2
  relative ATP amount (%) / cytocidal activity: decreased in a dose-dependent manner
